How the values were obtained:
Ba/F3-NRAS-G12D cells = assay: Anti-proliferation assay (CellTiter Glo) on Ba/F3-NRAS-G12D; format: cell-based; conditions: Mus musculus, BaF3; 72 h treatment; average with SD (n = 3, duplicate)
Description: (§1) Ba/F3-parental, OCI-AML3, U397 cells were purchased from DSMZ. MDA-MB-231, HCT-116, AsPC-1, H358, HT-29, SW480, and DU-145 cells were obtained from KCLB. MDA-MB-468 cells were obtained from ATCC. All cells were maintained in RPMI with 10% FBS and antibiotics. Cells were grown in a humidified 5% CO2 incubator at 37°C. Ba/F3-parental cells were grown in the presence of 10 ng/ml IL-3. NRAS-G12D or NRAS-G12V transformed Ba/F3 cell lines (Ba/F3-NRAS-G12D, and Ba/F3-NRAS-G12V, respectively) were cultured without IL-3, which were established by the procedure described as previously ([30]).
(§2) Approximately 3.0 × 10^3 cells/well were seeded in a 96-well cell culture plate. After stabilization, 1/3 serially diluted compound in DMSO was treated to the cell. […] All GI50 values were obtained in duplicate with three independent assays and averages with standard deviation are presented.

Ba/F3-NRAS-G12V cells = assay: Anti-proliferation assay (CellTiter Glo) on Ba/F3-NRAS-G12V; format: cell-based; conditions: Mus musculus, BaF3; 72 h treatment; average with SD (n = 3, duplicate)
Description: as §1, §2

Ba/F3-parental cells = assay: Anti-proliferation assay (CellTiter Glo) on Ba/F3-parental; format: cell-based; conditions: Mus musculus, BaF3; 72 h treatment; with 10 ng/ml IL-3; average with SD (n = 3, duplicate)
Description: as §1, §2

H358 (KRAS-G12C) = assay: Anti-proliferation assay on H358; format: cell-based; conditions: Homo sapiens, NCI-H358; 72 h treatment; average with SD (n = 3, duplicate)
Description: as §1, §2

AsPC-1 (KRAS-G12D) = assay: Anti-proliferation assay on AsPC-1; format: cell-based; conditions: Homo sapiens, ASPC1; 72 h treatment; average with SD (n = 3, duplicate)
Description: as §1, §2

DU-145 (KRAS-G12V) = assay: Anti-proliferation assay on DU-145; format: cell-based; conditions: Homo sapiens, DU-145; 72 h treatment; average with SD (n = 3, duplicate)
Description: as §1, §2

SW480 (KRAS-G12V) = assay: Anti-proliferation assay on SW480; format: cell-based; conditions: Homo sapiens, SW480; 72 h treatment; average with SD (n = 3, duplicate)
Description: as §1, §2

HCT-116 (KRAS-G13D) = assay: Anti-proliferation assay on HCT-116; format: cell-based; conditions: Homo sapiens, HCT-116; 72 h treatment; average with SD (n = 3, duplicate)
Description: as §1, §2

MDA-MB-231 (KRAS-G13D) = assay: Anti-proliferation assay on MDA-MB-231; format: cell-based; conditions: Homo sapiens, MDA-MB-231; 72 h treatment; average with SD (n = 3, duplicate)
Description: as §1, §2

HT-29 (KRAS-Q61L) = assay: Anti-proliferation assay on HT-29; format: cell-based; conditions: Homo sapiens, HT-29; 72 h treatment; average with SD (n = 3, duplicate)
Description: as §1, §2

OCI-AML3 (NRAS-Q61L) = assay: Anti-proliferation assay on OCI-AML3; format: cell-based, human; conditions: Homo sapiens, OCI-AML-3; 72 h treatment; average with SD (n = 3, duplicate)
Description: as §1, §2

[1] = test system: MDA-MB-468 (KRAS, NRAS-wt); assay: Anti-proliferation assay on MDA-MB-468; format: cell-based; conditions: Homo sapiens, MDA-MB-468; 72 h treatment; average with SD (n = 3, duplicate)
Description: as §1, §2

U937 (KRAS, NRAS-wt) = assay: Anti-proliferation assay on U937; format: cell-based; conditions: Homo sapiens, U-937; 72 h treatment; average with SD (n = 3, duplicate)
Description: as §1, §2

mtKRAS NSCLC cell = test system: mtKRAS NSCLC cell; parameters: method as in earlier work; conditions: ACK1 inhibitor; ref 37 (Tan et al.); cited from earlier work

GI50 (Ba/F3-NRAS-G12D cells) [nM] | GI50 (Ba/F3-NRAS-G12V cells) [nM] | GI50 (H358 (KRAS-G12C)) [nM] | GI50 (AsPC-1 (KRAS-G12D)) [nM] | GI50 (DU-145 (KRAS-G12V)) [nM] | GI50 (SW480 (KRAS-G12V)) [nM] | GI50 (HCT-116 (KRAS-G13D)) [nM] | GI50 (MDA-MB-231 (KRAS-G13D)) [nM] | GI50 (HT-29 (KRAS-Q61L)) [nM] | GI50 (OCI-AML3 (NRAS-Q61L)) [nM] | GI50 [1] [nM] | GI50 (U937 (KRAS, NRAS-wt)) [nM] | SMILES | GI50 (Ba/F3-parental cells) [nM] | mtKRAS NSCLC cell migration and invasion (mtKRAS NSCLC cell)
230 ± 129 | 213 ± 53 | 236 ± 29 | 135 ± 18 | 32 ± 14 | 163 | 25 ± 10 | 83 ± 22 | 126 ± 2 | 44 ± 14 | 26100 ± 7900 | 1040 ± 225 | CCN1CCN(c2ccc(Nc3ncc4c(n3)N(C)C(=O)N(c3cc(NC(=O)c5cccc(C(F)(F)F)c5)ccc3C)C4)cc2)CC1 [Compound 4, N-(3-(7-((4-(4-Ethylpiperazin-1-yl)phenyl)amino)-1-methyl-2-oxo-1,4-dihydropyrimido[4,5-d]pyrimidin-3(2H)-yl)-4-methylphenyl)-3-(trifluoromethyl)benzamide] | 857 ± 108 | –
– | – | – | – | – | – | – | – | – | – | – | – | COc1cc(Nc2c(C#N)cnc3cc(OCCCN4CCN(C)CC4)c(OC)cc23)c(Cl)cc1Cl [bosutinib] | – | suppressed
457 ± 141 | 351 ± 34 | 5140 ± 368 | 4160 ± 2170 | 1880 ± 125 | 6440 ± 264 | 2540 ± 1810 | 1110 ± 127 | 3120 ± 460 | 538 ± 162 | > 50000 | 4720 ± 488 | Cc1ccc(NC(=O)c2cccc(C(F)(F)F)c2)cc1N1Cc2cnc(NCCCN3CCOCC3)nc2N(C)C1=O [Compound 5, N-(4-Methyl-3-(1-methyl-7-((3-morpholinopropyl)amino)-2-oxo-1,4-dihydropyrimido[4,5-d]pyrimidin-3(2H)-yl)phenyl)-3-(trifluoromethyl)benzamide] | 5730 ± 148 | –
